Assay results as given in paper PMC10349134, “The RNA-binding protein LRPPRC promotes resistance to CDK4/6 inhibition in lung cancer” (Nature Communications, 2023).

Biological target: T1, LRPPRC (endogenous, A549 cells) (Homo sapiens, UniProt P42704)
T1 construct: endogenous protein in A549 lung adenocarcinoma cells; no tag
Assay: cellular thermal shift assay (CETSA), immunoblot
Format: cell-based
Conditions: 40 μM GAA vs DMSO

## Cc1cc2c(C(C)C)c(O)c(O)c(C=O)c2c(O)c1-c1c(C)cc2c(C(C)C)c(O)c(O)c(C=O)c2c1O [GAA]
  CETSA thermal stabilization: GAA could increase the thermal stabilization of LRPPRC
